Patent US7282503B2 (priority 2002, dated 2007)
Read-outs that look alike come from different tables or passages of the source.

Experiments:
Phytophthora infestans = type: in vivo; conditions: individual active compound, control 90% infection
Plasmopara viticola = assay: Activity against peronospora of vines caused by Plasmopara viticola (protective spray, potted vines); type: in vivo, Plasmopara viticola on vines cultivar Müller-Thurgau; conditions: individual active compound, control 88% infection
Description: The active compounds, separately or together, were prepared as a stock solution with 0.25% by weight of active compound in acetone or DMSO. 1% by weight of the emulsifier Uniperol® EL (wetting agent having emulsifying and dispersing action based on ethoxylated alkylphenols) was added to this solution, and the solution was diluted with water to the desired concentration.
Evaluation is carried out by determining the infected leaf areas as a percentage. These percentages are converted into efficacies. The efficacy (W) is calculated as follows using Abbot's formula: W=(1−α/β)·100 α corresponds to the fungal infection of the treated plants in % and β corresponds to the fungal infection of the untreated (control) plants in % An efficacy of 0 means that the infection level of the treated plants corresponds to that of the untreated control plants; an efficacy of 100 means that the treated plants were not infected. The expected efficacies of the mixtures of the active compounds are determined using Colby's formula [R. S. Colby, Weeds 15, 20-22 (1967)] and compared with the observed efficacies. Colby's formula: E=x+y−x·y/100 […]
E expected efficacy, expressed as a % of the untreated control, when using the mixture of the active compounds A and B at the concentrations a and b x efficacy, expressed as a % of the untreated control, when using active compound A at a concentration a y efficacy, expressed as a % of the untreated control, when using active compound B at a concentration b Leaves of potted vines of the cultivar “Müller-Thurgau” were sprayed to runoff point with an aqueous suspension having the concentration of active compounds stated below. The next day, the undersides of the leaves were inoculated with an aqueous zoospore suspension of Plasmopara viticola. The vines were then initially placed in a water-vapor-saturated chamber at 24° C. for 48 hours and then in a greenhouse at 20-30° C. for 5 days. After this period of time, the plants were again placed in a moist chamber for 16 hours to promote sporangiophore eruption. The extent to which the infection had developed on the undersides of the leaves was then determined visually.

Row | Compound | Efficacy in % of the untreated control (Phytophthora infestans; 3.75 ppm in spray liquid) [%] | Efficacy in % of the untreated control (Phytophthora infestans; 7.5 ppm in spray liquid) [%] | Efficacy in % of the untreated control (Phytophthora infestans; 15 ppm in spray liquid) [%] | Efficacy in % of the untreated control (Phytophthora infestans; 30 ppm in spray liquid) [%] | Efficacy in % of the untreated control (Plasmopara viticola; 3.75 ppm in spray liquor) [%] | Efficacy in % of the untreated control (Plasmopara viticola; 7.5 ppm in spray liquor) [%] | Efficacy in % of the untreated control (Phytophthora infestans; 0.75 ppm in spray liquid) [%] | Efficacy in % of the untreated control (Phytophthora infestans; 1.5 ppm in spray liquid) [%] | Efficacy in % of the untreated control (Phytophthora infestans; 3 ppm in spray liquid) [%] | Efficacy in % of the untreated control (Phytophthora infestans; 6 ppm in spray liquid) [%] | Efficacy in % of the untreated control (Plasmopara viticola; 3 ppm in spray liquor) [%] | Efficacy in % of the untreated control (Plasmopara viticola; 6 ppm in spray liquor) [%]
1 | CC1CCN(c2c(-c3c(F)cc(F)cc3F)c(Cl)nc3ncnn23)CC1 [I, 5-chloro-7-(4-methyl-pipiridin-1-yl)-6-(2,4,6-trifluorophenyl)-[1,2,4]triazolo[1,5-a]pyrimidine] | 0 | 0 | 0 | 33 | 9 | 32 |  |  |  |  |  | 
2 | Cc1ccc(-c2c(Cl)nc(C#N)n2S(=O)(=O)N(C)C)cc1 [IIa, cyazofamid] |  |  |  |  |  |  | 56 | 67 | 78 | 89 | 72 | 83
